From US20200246284A1 (Academia Sinica, priority 2015, published 2020)
Values joined by “and” are separate entries in the source; they are usually repeats but may differ in a detail not shown here. Equal entries are not always repeated. Where two headings read alike, the source gives them in different places.

Key:
[1] = tested on: OP9 calvarial stroma; test: Cytotoxicity normal tissue 72 hr; type: cell-based; conditions: OP9 (mouse)
[2] = tested on: AML cell lines; test: Cytotoxicity, panel of AML cell lines; type: cell-based, human
Excerpt: Human cord blood CD34+ cells transduced with MLL-AF9 gene: MA-10, MA-18. Human bone marrow CD34+ cells transduced with MLL-AF9 gene: MA-23. Human cord blood CD34+ cells transduced with MLL-AF9 and N-ras genes: MA-9.3, MA-9.6. • b) Growth factor independent leukemic cell lines. Human MA-10 cells transduced with Flt3 ITD (W51) were adapted to in vitro proliferation without growth factors (Moore Laboratory).

[3] = Caco-2 permeability; type: in vitro ADME, human; conditions: human, Caco-2, 10 μM
Excerpt: (§1) The Caco-2 permeability assay is considered to be the industry gold standard for in vitro prediction of in vivo human intestinal permeability and bioavailability of orally administered drugs. The Caco-2 permeability assay uses an established method for predicting the absorption of therapeutic compounds across the GIT by measuring the rate of transport across a contiguous Caco-2 cell monolayer. […] The Caco-2 assay measures the passage of a test compound from a donor chamber into an acceptor chamber through a porous membrane on which a confluent Caco-2 monolayer forms a cellular barrier.

[4] = tested on: Caco-2 cell monolayers; test: Caco-2 permeability; type: in vitro ADME, human
Excerpt: as §1

[5] = Plasma protein binding, equilibrium dialysis; type: in vitro ADME; conditions: rat plasma, read-out: % bound (converted)
Excerpt: In drug discovery, the information on drug-plasma protein binding is valuable in evaluating and understanding, the absorption, distribution, metabolism and excretion (ADME)-related properties and the pharmacokinetic profile of drug candidates.

[6] = tested on: AML-2 CD34+ cells in NSG mice; test: Primary MLL-AF9+ pediatric AML (AML-2) xenograft; type: in vivo, mouse; conditions: 30 mg/kg Q10D2x from day 7
[7] = tested on: Granta; test: Combination with BO-1055, MCL (Tables 28, 29); type: cell-based, human; conditions: read-out: IC50 single drug
[8] = tested on: NECB1; test: Combination with BO-1055, MCL (Tables 28, 29); type: cell-based, human; conditions: read-out: IC50 single drug
[9] = tested on: JEKO-1; conditions: human
Procedure: (§2) After 72 hours, the cultures were pulsed with Alamar Blue overnight, and the fluorescent intensity of resulted cultures was measured by a Synergy H1 plate-reader (BioTek Inc).

[10] = tested on: SUDHL-6; conditions: human
Procedure: as §2

[11] = tested on: HBL1; conditions: human
Procedure: as §2

[12] = in vitro; conditions: rat, microsomes
[13] = tested on: A204 rhabdomyosarcoma; test: Cytotoxicity sarcoma; conditions: read-out: cytotoxic activity (IC50), A204 (rhabdoid?)
Procedure: as §2

[14] = tested on: LY7 (OCH-Ly7); test: Cytotoxicity DLBCL; conditions: read-out: cytotoxicity IC50; LY7, DLBCL GCB
[15] = tested on: JEKO-1; test: Cytotoxicity mantle cell lymphoma
Procedure: as §2

[16] = target: P-glycoprotein (P-gp) (Homo sapiens, UniProt P08183); test: P-gp mediated efflux in Caco-2 monolayers
P-glycoprotein (P-gp), sequence (P08183 whole entry): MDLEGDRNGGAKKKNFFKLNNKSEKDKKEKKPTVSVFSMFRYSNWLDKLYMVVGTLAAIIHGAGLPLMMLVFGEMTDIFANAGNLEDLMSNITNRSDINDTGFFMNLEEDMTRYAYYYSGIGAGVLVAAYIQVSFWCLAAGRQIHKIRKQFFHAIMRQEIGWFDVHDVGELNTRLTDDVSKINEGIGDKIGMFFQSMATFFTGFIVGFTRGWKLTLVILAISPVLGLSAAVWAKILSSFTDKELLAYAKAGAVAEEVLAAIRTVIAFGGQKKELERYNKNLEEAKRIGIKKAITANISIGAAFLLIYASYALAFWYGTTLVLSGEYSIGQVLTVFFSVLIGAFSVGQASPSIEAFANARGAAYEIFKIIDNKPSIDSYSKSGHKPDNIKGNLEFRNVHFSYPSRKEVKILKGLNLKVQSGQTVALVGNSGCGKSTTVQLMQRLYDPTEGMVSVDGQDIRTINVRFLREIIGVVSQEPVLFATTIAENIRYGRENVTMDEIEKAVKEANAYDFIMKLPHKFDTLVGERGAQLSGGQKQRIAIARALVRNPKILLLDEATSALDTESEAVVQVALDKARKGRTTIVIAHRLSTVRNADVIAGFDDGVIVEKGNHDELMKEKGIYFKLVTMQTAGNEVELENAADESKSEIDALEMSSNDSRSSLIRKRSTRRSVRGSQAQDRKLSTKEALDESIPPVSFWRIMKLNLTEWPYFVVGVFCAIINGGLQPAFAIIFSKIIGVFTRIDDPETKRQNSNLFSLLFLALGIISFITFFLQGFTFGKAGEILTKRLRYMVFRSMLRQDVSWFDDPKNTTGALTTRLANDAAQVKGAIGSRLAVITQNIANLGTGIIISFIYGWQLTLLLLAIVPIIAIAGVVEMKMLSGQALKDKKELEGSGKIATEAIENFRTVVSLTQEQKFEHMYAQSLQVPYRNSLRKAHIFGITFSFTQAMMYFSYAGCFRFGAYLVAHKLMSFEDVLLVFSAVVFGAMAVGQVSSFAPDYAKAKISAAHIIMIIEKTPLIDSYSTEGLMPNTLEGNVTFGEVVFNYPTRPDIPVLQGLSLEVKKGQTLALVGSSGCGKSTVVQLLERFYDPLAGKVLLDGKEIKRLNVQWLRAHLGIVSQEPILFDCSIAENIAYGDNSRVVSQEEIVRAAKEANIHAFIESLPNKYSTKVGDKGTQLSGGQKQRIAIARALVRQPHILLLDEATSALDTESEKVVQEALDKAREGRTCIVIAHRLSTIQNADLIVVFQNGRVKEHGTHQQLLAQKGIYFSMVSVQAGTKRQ

[17] = tested on: nude mice bearing prostate 22Rv/HL2; test: Complete blood count, 22Rv/HL2 xenograft mice; conditions: 24 hrs after last treatment
[18] = tested on: nude mice bearing prostate 22Rv/HL2 tumor xenografts; test: Pathological examination of organs and body weight, 22Rv/HL2 xenograft mice
[19] = tested on: IMR90 fetal lung myofibroblast; test: Cytotoxicity normal tissue 72 hr; type: cell-based, human
[20] = tested on: CALU-3; type: cell-based, human
[21] = tested on: CL141T; type: cell-based, human
[22] = tested on: H1975; type: cell-based, human
[23] = tested on: MOR; test: Cytotoxicity NSCLC; type: cell-based, human
[24] = tested on: SK-LU-1; type: cell-based, human
[25] = tested on: A549; type: cell-based, human
[26] = tested on: H226; type: cell-based, human
[27] = tested on: HCC15; type: cell-based, human
[28] = tested on: HCC2450; type: cell-based, human
[29] = tested on: H128; test: Cytotoxicity SCLC 72 hr alamar blue; type: cell-based, human
[30] = tested on: H146; test: Cytotoxicity SCLC 72 hr alamar blue; type: cell-based, human
[31] = tested on: H209; test: Cytotoxicity SCLC 72 hr alamar blue; type: cell-based, human
[32] = tested on: H211; test: Cytotoxicity SCLC 72 hr alamar blue; type: cell-based, human
[33] = tested on: H417; test: Cytotoxicity SCLC 72 hr alamar blue; type: cell-based, human
[34] = tested on: H60; test: Cytotoxicity SCLC 72 hr alamar blue; type: cell-based, human
[35] = tested on: H82; test: Cytotoxicity SCLC 72 hr alamar blue; type: cell-based, human

CN(C)CCNC(=O)c1cccc(NC(=O)Nc2ccc(N(CCCl)CCCl)cc2)c1 [BO-1055, Ureidomustine]
IC50 [1]: ≥ 10 µM
IC50 ([2]; Homo sapiens, THP1 and MOLM13): 180 to 450 nM
increase of cytotoxicity by MLL-AF9 ([2]; MLL-AF9 transduced vs normal CB or BM CD34+): 25-40 fold
Papp B→A at 10 μM [3]: 7.05 ×10⁻⁶ cm/s
Papp (B to A) ([4]; 10 μM): Papp (B to A) = 7.5 × 10−6 cm/sec
mass balance ([4]; A→B and B→A directions): < 50%
Papp coefficient A→B ([4]; Caco-2): not detected
fraction unbound at 2 h, 20 μM ([5]; 2 h): 0.0032
fraction unbound at 4 h, 20 μM ([5]; 4 h): 0.0031
fraction unbound at 6 h, 20 μM ([5]; 6 h): 0.0799
fraction unbound at 24 h, 20 μM ([5]; 24 h): 0.248
survival longer than control [6]: 48 days
IC50 [7]: 5.26 µM and 5.5 µM and 6.55 µM
IC50 [8]: 7.42 µM and 7.78 µM and 8.52 µM
IC50 [9]: 270 nM
IC50 [10]: 5.93 µM
IC50 [11]: 870 nM
half-life [12]: 29.7 min
IC50 [13]: 80 nM
IC50 [14]: 5.06 µM
IC50 [15]: 270 nM
P-gp assessment [16]: Possible P-gp liabilities
BASO [17]: 0.06 10^3/μL
EOS [17]: 0.14 10^3/μL
LYM [17]: 1.52 10^3/μL
MONO [17]: 0.08 10^3/μL
NEU [17]: 0.83 10^3/μL
PLT [17]: 195 10^3/μL
RBC [17]: 9.52 10^6/μL
WBC [17]: 2.98 10^3/μL
average body-weight ([18]; after cessation of treatment): recovered on day 35-40
pathological change in heart, liver, spleen, lung and kidney ([18]; day 42 after onset of drug administration): no apparent pathological change

N.N.[Cl][Pt][Cl] [Cisplatin]
IC50 [19]: > 100 µM
IC50 [20]: ≥ 100 µM
IC50 [21]: 2450 nM
IC50 [22]: ≥ 10 µM
IC50 [23]: 3.9 µM
IC50 [24]: 6.94 µM
IC50 [25]: ≥ 30 µM
IC50 [26]: 2900 nM
IC50 [27]: ≥ 85 µM
IC50 [28]: ≥ 80 µM
IC50 [29]: 4.79 µM
IC50 [30]: 3.77 µM
IC50 [31]: 310 nM
IC50 [32]: 1210 nM
IC50 [33]: 2010 nM
IC50 [34]: 2090 nM
IC50 [35]: ≥ 20 µM
